Measurements from patent US9695155B2, “Herbicidal substituted pyrimidinyloxy benzene compounds” (E. I. DU PONT DE NEMOURS AND COMPANY, priority 2013, dated 2017).

Legend:
[1] = test system: morningglory; experiment: Test A preemergence; type: in vivo, Ipomoea spp.
Outline: (§1)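 Greenhouse pot test, loam/sand soil. Formulation: non-phytotoxic solvent mix plus surfactant. Pre: directed spray onto soil after sowing. Post: plants at 1–2 leaf, 2–10 cm. Rated visually vs untreated controls at ~10 d, 0 (no effect) to 100 (complete control).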

[2] = test system: barnyardgrass; experiment: Test A postemergence; type: in vivo, Echinochloa crus-galli; conditions: 0 to 100 scale where 0 is no effect and 100 is complete control
Outline: as §1

[3] = test system: giant foxtail; experiment: Test A postemergence; type: in vivo, Setaria faberii; conditions: 0 to 100 scale where 0 is no effect and 100 is complete control
Outline: as §1

[4] = test system: wheat; experiment: Test A postemergence; type: in vivo, Triticum aestivum; conditions: 0 to 100 scale where 0 is no effect and 100 is complete control
Outline: as §1

[5] = test system: blackgrass; experiment: Test C preemergence; type: in vivo, Alopecurus myosuroides; conditions: for Blackgrass plant response rating: preemergence
Outline: (§2)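 Visual ratings on a 0–100 scale (100 = complete control) were made versus untreated controls after 13–15 greenhouse days. Chemicals in a surfactant-containing non-phytotoxic solvent were applied either preemergence to seeds in loam–sand soil or postemergence to 1- to 4-leaf plants 2–18 cm tall.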

[6] = test system: Italian ryegrass; experiment: Test C preemergence; type: in vivo, Lolium multiflorum; conditions: for Ryegrass, Italian plant response rating: preemergence
Outline: as §2

[7] = test system: johnsongrass; experiment: Test C preemergence; type: in vivo, Sorghum halepense; conditions: for Johnsongrass plant response rating: preemergence
Outline: as §2

[8] = test system: morningglory; experiment: Test C preemergence; type: in vivo, Ipomoea coccinea; conditions: for Morningglory plant response rating: preemergence
Outline: as §2

[9] = test system: yellow nutsedge; experiment: Test C preemergence; type: in vivo, Cyperus esculentus; conditions: for Nutsedge, Yellow plant response rating: preemergence
Outline: as §2

[10] = test system: ragweed; experiment: Test C preemergence; type: in vivo, Ambrosia elatior; conditions: for Ragweed plant response rating: preemergence
Outline: as §2

[11] = test system: soybean; experiment: Test C preemergence; type: in vivo, Glycine max; conditions: for Soybean plant response rating: preemergence
Outline: as §2

[12] = test system: barnyardgrass; experiment: Test C preemergence; type: in vivo, Echinochloa crus-galli; conditions: for Barnyardgrass plant response rating: preemergence
Outline: as §2

[13] = test system: oilseed rape; experiment: Test C preemergence; type: in vivo, Brassica napus; conditions: for Oilseed Rape plant response rating: preemergence
Outline: as §2

[14] = test system: blackgrass; experiment: Test C postemergence; type: in vivo, Alopecurus myosuroides
Outline: as §2

[15] = test system: large (Lg) crabgrass; experiment: Test C postemergence; type: in vivo, Digitaria sanguinalis
Outline: as §2

[16] = test system: oilseed rape; experiment: Test C postemergence; type: in vivo, Brassica napus
Outline: as §2

[17] = 16 g ai/ha, scale 0 to 100 (0 no effect, 100 complete control)
[18] = 125 g ai/ha, scale 0 (no effect) to 100 (complete control)
[19] = Preemergence, 62 g ai/ha, scale 0 to 100, 0 no effect, 100 complete control
[20] = 16 g ai/ha, postemergence, 0 is no effect, 100 is complete control
[21] = 31 g ai/ha, postemergence, visual rating, scale 0 to 100 (0 no effect, 100 complete control), 13 to 15 days
[22] = 125 g ai/ha, postemergence, visual rating, scale 0 to 100 (0 no effect, 100 complete control)
[23] = Postemergence, 62 g ai/ha, scale 0 to 100 (0 no effect, 100 complete control)

Cc1cnc(Oc2cccc(C#N)c2-n2cc(C(F)(F)F)cn2)nc1 [Compound 180]
Morningglory plant response rating (0 to 100 scale) ([1]; 125 g ai/ha): 90
Morningglory plant response rating ([1]; 500 g ai/ha, 0 to 100 scale where 0 is no effect and 100 is complete control): 100
Barnyardgrass plant response rating ([2]; 125 g ai/ha): 90
Plant response rating, Barnyardgrass ([2]; 500 g ai/ha): 100
Foxtail, Giant plant response rating ([3]; 125 g ai/ha): 90
Plant response rating, Foxtail, Giant ([3]; 500 g ai/ha): 90
Wheat plant response rating ([4]; 125 g ai/ha): 40
Plant response rating, Wheat ([4]; 500 g ai/ha): 80
Blackgrass plant response rating [5, 17]: 20
Blackgrass plant response rating [5, 18]: 90
Plant response rating, Blackgrass [5, 19]: 90
Ryegrass, Italian plant response rating [6, 17]: 5
Ryegrass, Italian plant response rating [6, 18]: 80
Plant response rating, Ryegrass, Italian [6, 19]: 50
Johnsongrass plant response rating [7, 17]: 0
Johnsongrass plant response rating [7, 18]: 98
Plant response rating, Johnsongrass [7, 19]: 75
Morningglory plant response rating [8, 17]: 35
Morningglory plant response rating [8, 18]: 100
Plant response rating, Morningglory [8, 19]: 100
Nutsedge, Yellow plant response rating [9, 17]: 5
Nutsedge, Yellow plant response rating [9, 18]: 85
Plant response rating, Nutsedge, Yellow [9, 19]: 65
Ragweed plant response rating [10, 17]: 20
Ragweed plant response rating [10, 18]: 98
Plant response rating, Ragweed [10, 19]: 80
Soybean plant response rating [11, 17]: 90
Soybean plant response rating [11, 18]: 98
Plant response rating, Soybean [11, 19]: 98
Barnyardgrass plant response rating [12, 17]: 60
Barnyardgrass plant response rating [12, 18]: 100
Plant response rating, Barnyardgrass [12, 19]: 100
Oilseed Rape plant response rating [13, 17]: 55
Oilseed Rape plant response rating [13, 18]: 100
Plant response rating, Oilseed Rape [13, 19]: 100
Plant response rating (0 to 100), Blackgrass [14, 20]: 0
Blackgrass plant response rating [14, 21]: 10
Plant response rating, Blackgrass [14, 22]: 30
Plant response rating, Blackgrass [14, 23]: 5
Plant response rating (0 to 100), Crabgrass, Large [15, 20]: 5
Crabgrass, Large plant response rating [15, 21]: 5
Plant response rating, Crabgrass, Large [15, 22]: 35
Plant response rating, Crabgrass, Large [15, 23]: 5
Plant response rating (0 to 100), Oilseed Rape [16, 20]: 15
Oilseed Rape plant response rating [16, 21]: 25
Plant response rating, Oilseed Rape [16, 22]: 55
Plant response rating, Oilseed Rape [16, 23]: 40
